From patent publication US6943196B1, “NF-κB inhibitor comprising phenylmethyl benzoquinone as the active ingredient” (Daiichi Suntory Pharma Co., Ltd., priority 1998, dated 2005)

Key:
TNF-α production = TNF-α production of LPS-stimulated RAW264.7 cells (ELISA); type: cell-based; conditions: Mus musculus, LPS (10 μg/ml) for 4 hours
Source text: (§1) When various cells are stimulated with LPS, NF-κB is activated which results in the expression and induction of proteins represented by […] and TNF-α, and thereby the cells start to produce NO and TNF-α.
(§2) The inhibitory activity of the compounds shown in the Examples is expressed as an IC50 value.

NO production = NO production of LPS-stimulated RAW264.7 cells (Griess' method); type: cell-based; conditions: Mus musculus, LPS (10 μg/ml), NO in culture medium after 24 hours
Source text: as §1
The Griess' method utilizing a diazo reaction has been known as a method for indirectly knowing that a cell actually produces NO. In the Griess' method, the Griess' reagent in which naphthylethylenediamine and sulfanilic acid have been mixed is reacted with NO2 ion in the culture medium, and the color development thereof is measured by absorbance at 540 nm. The amount of NO accumulated in the cell culture medium after 24 hours was measured in this method with a result that the production of NO released from LPS (10 μg/ml)-stimulated RAW264.7 cells (ATCC, TIB-71) derived from macrophage is suppressed by the compound obtained in Example 4 (FIG. 4A).
as §2

IC50 (TNF-α production) [µM]	IC50 (NO production) [µM]	Structure (SMILES)
11	7	COC1=C(OC)C(=O)C(Cc2ccc(CCC(=O)N[C@@H](C)c3ccccc3)cc2)=C(C)C1=O [Example 120]
26	21	COC1=C(OC)C(=O)C(Cc2ccc(CCC(=O)N3CCCC(C)C3)cc2)=C(C)C1=O (stereo not shown) [Example 85]
19	19	COC1=C(OC)C(=O)C(Cc2cccc(CCC(=O)NC(C)C)c2)=C(C)C1=O [Example 35, N-[3-[3-(5,6-dimethoxy-3-methyl-1,4-benzoquinon-2-ylmethyl)phenyl]propioyl]isopropylamine]
16	10	COC1=C(OC)C(=O)C(Cc2ccc(CCC(=O)NC(C)C)cc2)=C(C)C1=O [Example 9, N-[3-[4-(5,6-dimethoxy-3-methyl-1,4-benzoquinon-2-ylmethyl)phenyl]propionyl]isopropylamine]
31	31	COC1=C(OC)C(=O)C(Cc2ccc(CCC(=O)Nc3ccc(OC)c(OC)c3)cc2)=C(C)C1=O [Example 103]
22	15	COC1=C(OC)C(=O)C(Cc2ccc(CCC(=O)N3CCCCC3)cc2)=C(C)C1=O [Example 7, N-[3-[4-(5,6-dimethoxy-3-methyl-1,4-benzoquinon-2-ylmethyl)phenyl]propionyl]piperidine]
9	6	COC1=C(OC)C(=O)C(Cc2ccc(CCC(=O)N3CCCCC3C)cc2)=C(C)C1=O (stereo not shown) [Example 83]
13	13	COC1=C(OC)C(=O)C(Cc2ccc(CCC(=O)N3CCC(C)CC3)cc2)=C(C)C1=O [Example 81]
21	21	COC1=C(OC)C(=O)C(Cc2ccc(CCC(=O)N3CCSCC3)cc2)=C(C)C1=O [Example 4, N-[3-[4-(5,6-dimethoxy-3-methyl-1,4-benzoquinon-2-ylmethyl)phenyl]propionyl]thiomorpholine]
20	20	COC1=C(OC)C(=O)C(Cc2ccc(CCC(=O)N3CC(C)CC(C)C3)cc2)=C(C)C1=O (stereo not shown) [Example 137]
17	17	COC1=C(OC)C(=O)C(Cc2ccc(CCC(=O)N3CCC(C(C)=O)(c4ccccc4)CC3)cc2)=C(C)C1=O [Example 168]
19	19	COC1=C(OC)C(=O)C(Cc2ccc(CC(=O)N3CCOCC3)cc2)=C(C)C1=O [Example 53, N-[4-(5,6-dimethoxy-3-methyl-1,4-benzoquinon-2-ylmethyl)phenylacetyl]morpholine]
11	9	COC1=C(OC)C(=O)C(Cc2ccc(CCC(=O)Nc3ccc(OC)cc3)cc2)=C(C)C1=O [Example 94]
25	17	COC1=C(OC)C(=O)C(Cc2ccc(CCC(=O)N3CCC[C@H]3C(N)=O)cc2)=C(C)C1=O [Example 106]
